According to patent publication EP4745135A1 (Gluetacs Therapeutics (Shanghai) Co., Ltd., priority 2023, dated 2025):

Legend:
GSPT1 = test: Western blot, degradation of substrate protein in hPBMCs; assay type: cell-based, Human
[1] = biological target: T1, human Cereblon WT GST-tagged protein (Homo sapiens, UniProt Q96SW2); test: CRBN-binding affinity, HTRF (CEREBLON BINDING kit); settings: for inhibition at 0.5 µM: read-out: Inhibition Rate at 0.5 µM (%); for inhibition at 2 µM: read-out: Inhibition Rate at 2 µM (%)
T1 construct: purchased CISBIO 64BDCRBNPEH
T1 sequence (Q96SW2 whole entry): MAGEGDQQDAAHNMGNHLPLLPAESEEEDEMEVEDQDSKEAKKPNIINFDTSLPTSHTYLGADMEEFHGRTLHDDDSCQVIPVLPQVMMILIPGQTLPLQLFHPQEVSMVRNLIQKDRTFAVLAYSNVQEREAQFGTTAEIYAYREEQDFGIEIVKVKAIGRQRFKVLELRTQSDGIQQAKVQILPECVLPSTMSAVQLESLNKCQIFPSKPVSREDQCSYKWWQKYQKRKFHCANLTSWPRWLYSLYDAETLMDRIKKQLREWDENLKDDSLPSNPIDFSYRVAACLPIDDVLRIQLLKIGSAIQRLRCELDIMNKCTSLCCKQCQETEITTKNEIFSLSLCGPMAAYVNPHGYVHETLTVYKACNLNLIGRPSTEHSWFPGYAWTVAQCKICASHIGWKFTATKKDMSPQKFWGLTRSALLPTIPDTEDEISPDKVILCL

IKZF1 = biological target: T2, IKZF1 (Homo sapiens, UniProt Q13422+Q96SW2); test: Western blot, degradation of substrate protein in hPBMCs; assay type: cell-based
T2 construct: effects of the compounds of the present disclosure on the expression of target proteins in cells; endogenous in cells; host or cells: human PBMCs (Milecell Biotechnologies)
T2 sequence (Q13422 whole entry): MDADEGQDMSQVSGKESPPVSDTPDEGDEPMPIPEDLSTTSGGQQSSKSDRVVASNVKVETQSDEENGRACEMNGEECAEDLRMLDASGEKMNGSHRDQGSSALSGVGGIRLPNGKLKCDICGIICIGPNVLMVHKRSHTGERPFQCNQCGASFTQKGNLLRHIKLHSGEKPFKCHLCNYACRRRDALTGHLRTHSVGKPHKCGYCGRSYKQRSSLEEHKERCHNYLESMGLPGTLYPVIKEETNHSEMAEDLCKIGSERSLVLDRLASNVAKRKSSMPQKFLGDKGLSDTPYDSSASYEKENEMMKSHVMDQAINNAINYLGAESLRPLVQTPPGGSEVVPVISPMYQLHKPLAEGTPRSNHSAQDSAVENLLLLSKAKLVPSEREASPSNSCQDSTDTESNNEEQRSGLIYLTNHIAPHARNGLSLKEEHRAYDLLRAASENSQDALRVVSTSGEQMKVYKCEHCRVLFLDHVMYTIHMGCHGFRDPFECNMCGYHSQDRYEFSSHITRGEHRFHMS
T2 sequence (Q96SW2 whole entry): as the sequence (Q96SW2 whole entry) above
T2 sequence (Q16531 whole entry partner): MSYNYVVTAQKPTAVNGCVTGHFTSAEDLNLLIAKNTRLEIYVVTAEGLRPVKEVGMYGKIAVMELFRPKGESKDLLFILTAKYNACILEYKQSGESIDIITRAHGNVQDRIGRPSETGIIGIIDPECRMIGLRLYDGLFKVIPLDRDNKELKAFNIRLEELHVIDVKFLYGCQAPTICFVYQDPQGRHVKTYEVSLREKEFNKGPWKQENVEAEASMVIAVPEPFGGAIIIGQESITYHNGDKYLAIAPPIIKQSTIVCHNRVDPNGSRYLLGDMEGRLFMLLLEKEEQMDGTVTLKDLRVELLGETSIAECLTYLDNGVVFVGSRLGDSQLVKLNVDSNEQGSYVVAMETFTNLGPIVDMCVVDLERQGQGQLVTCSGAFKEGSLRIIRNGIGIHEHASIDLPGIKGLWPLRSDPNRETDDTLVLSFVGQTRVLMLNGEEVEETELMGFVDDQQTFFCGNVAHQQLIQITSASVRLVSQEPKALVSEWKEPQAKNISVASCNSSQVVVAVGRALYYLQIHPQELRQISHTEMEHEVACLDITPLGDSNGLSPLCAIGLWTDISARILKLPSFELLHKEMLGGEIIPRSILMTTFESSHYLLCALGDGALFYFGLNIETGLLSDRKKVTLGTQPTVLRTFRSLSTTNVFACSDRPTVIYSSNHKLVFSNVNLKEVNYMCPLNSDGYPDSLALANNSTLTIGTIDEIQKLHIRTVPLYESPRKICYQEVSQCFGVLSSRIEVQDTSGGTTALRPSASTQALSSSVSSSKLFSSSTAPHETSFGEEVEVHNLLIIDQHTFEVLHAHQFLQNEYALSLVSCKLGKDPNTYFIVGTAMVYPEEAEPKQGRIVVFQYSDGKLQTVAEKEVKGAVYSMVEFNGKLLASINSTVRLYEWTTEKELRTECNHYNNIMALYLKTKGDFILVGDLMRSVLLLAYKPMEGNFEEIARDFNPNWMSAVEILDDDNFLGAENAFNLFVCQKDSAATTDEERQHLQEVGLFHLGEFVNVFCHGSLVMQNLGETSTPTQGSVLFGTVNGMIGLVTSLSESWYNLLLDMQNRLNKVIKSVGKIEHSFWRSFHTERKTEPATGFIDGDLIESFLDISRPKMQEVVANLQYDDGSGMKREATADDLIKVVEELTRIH

IKZF2 = biological target: T3, IKZF2 (Homo sapiens, UniProt Q96SW2+Q9UKS7); test: as above; assay type: cell-based
T3 construct: effects of the compounds of the present disclosure on the expression of target proteins in cells; endogenous in cells; host or cells: human PBMCs (Milecell Biotechnologies)
T3 sequence (Q9UKS7 whole entry): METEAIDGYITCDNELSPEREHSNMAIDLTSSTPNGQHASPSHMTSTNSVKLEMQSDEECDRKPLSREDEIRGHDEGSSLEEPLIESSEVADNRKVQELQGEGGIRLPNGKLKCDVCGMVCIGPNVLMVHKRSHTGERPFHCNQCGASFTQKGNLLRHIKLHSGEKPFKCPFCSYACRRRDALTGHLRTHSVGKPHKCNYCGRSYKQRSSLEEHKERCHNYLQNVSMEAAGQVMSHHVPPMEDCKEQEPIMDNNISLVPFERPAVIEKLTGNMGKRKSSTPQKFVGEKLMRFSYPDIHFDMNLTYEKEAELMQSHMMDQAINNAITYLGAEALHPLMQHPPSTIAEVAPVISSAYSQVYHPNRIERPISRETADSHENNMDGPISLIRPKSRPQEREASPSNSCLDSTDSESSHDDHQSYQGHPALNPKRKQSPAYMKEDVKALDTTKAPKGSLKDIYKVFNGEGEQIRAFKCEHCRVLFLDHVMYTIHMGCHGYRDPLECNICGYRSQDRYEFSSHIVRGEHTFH
T3 sequence (Q96SW2 whole entry): as the sequence (Q96SW2 whole entry) above
T3 sequence (Q16531 whole entry partner): as the sequence (Q16531 whole entry partner) above

IKZF3 = biological target: T4, IKZF3 (Homo sapiens, UniProt Q96SW2+Q9UKT9); test: as above; assay type: cell-based
T4 construct: effects of the compounds of the present disclosure on the expression of target proteins in cells; endogenous in cells; host or cells: human PBMCs (Milecell Biotechnologies)
T4 sequence (Q9UKT9 whole entry): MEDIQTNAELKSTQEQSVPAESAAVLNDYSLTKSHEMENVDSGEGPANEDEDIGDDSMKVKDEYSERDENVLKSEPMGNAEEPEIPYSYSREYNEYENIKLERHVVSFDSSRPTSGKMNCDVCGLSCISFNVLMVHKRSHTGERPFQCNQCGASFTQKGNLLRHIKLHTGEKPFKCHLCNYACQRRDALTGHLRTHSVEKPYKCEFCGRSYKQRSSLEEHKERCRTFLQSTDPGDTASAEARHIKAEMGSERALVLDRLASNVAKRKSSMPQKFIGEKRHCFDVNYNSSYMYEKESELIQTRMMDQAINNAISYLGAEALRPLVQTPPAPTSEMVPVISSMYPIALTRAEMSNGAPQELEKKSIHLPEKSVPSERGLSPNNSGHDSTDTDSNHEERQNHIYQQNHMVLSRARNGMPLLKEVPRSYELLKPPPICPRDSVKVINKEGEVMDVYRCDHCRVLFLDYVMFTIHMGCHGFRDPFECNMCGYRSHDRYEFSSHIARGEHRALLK
T4 sequence (Q96SW2 whole entry): as the sequence (Q96SW2 whole entry) above
T4 sequence (Q16531 whole entry partner): as the sequence (Q16531 whole entry partner) above

WEE1 = biological target: T5, WEE1 (Homo sapiens, UniProt P30291+Q96SW2); test: as above; assay type: cell-based
T5 construct: effects of the compounds of the present disclosure on the expression of target proteins in cells; endogenous in cells; host or cells: human PBMCs (Milecell Biotechnologies)
T5 sequence (P30291 whole entry): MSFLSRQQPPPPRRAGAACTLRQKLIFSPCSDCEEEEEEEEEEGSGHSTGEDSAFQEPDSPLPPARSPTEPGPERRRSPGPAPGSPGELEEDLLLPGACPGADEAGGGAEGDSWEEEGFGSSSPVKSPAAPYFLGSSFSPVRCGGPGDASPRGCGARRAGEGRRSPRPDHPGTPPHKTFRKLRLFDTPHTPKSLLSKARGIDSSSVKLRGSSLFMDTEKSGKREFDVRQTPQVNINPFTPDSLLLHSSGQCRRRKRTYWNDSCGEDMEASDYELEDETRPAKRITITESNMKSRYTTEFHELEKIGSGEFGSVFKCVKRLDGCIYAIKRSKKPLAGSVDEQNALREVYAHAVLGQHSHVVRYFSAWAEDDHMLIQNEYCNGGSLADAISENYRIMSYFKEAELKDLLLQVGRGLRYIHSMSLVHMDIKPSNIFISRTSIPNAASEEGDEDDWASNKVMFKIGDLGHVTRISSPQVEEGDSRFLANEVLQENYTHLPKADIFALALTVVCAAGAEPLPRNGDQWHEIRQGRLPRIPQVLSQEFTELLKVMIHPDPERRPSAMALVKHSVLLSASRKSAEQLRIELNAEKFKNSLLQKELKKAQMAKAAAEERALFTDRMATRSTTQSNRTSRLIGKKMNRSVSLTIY
T5 sequence (Q96SW2 whole entry): as the sequence (Q96SW2 whole entry) above
T5 sequence (Q16531 whole entry partner): as the sequence (Q16531 whole entry partner) above

CK1α = biological target: T6, CK1α (Homo sapiens, UniProt P48729+Q96SW2); test: as above; assay type: cell-based
T6 construct: effects of the compounds of the present disclosure on the expression of target proteins in cells; endogenous in cells; host or cells: human PBMCs (Milecell Biotechnologies)
T6 sequence (P48729 whole entry): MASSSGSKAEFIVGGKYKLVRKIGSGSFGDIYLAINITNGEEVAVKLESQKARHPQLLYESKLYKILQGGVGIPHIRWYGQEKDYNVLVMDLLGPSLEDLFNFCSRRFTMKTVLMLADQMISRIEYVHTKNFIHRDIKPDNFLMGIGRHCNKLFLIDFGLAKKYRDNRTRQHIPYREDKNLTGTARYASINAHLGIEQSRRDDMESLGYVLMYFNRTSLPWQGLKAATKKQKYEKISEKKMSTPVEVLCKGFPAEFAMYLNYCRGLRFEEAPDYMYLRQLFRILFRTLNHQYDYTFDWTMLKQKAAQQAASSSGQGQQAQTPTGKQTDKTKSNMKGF
T6 sequence (Q96SW2 whole entry): as the sequence (Q96SW2 whole entry) above
T6 sequence (Q16531 whole entry partner): as the sequence (Q16531 whole entry partner) above

[2] = Western blot, 24 hours of compound treatment, compounds tested at 50 nM and 500 nM (concentration for the table not stated)
[3] = 24 hours treatment, compounds at 50 nM and 500 nM (concentration behind the class not stated)

SMILES | GSPT1 substrate protein remaining % (GSPT1; [2]) | inhibition at 0.5 µM [1] | inhibition at 2 µM [1] | IKZF 1 substrate protein remaining % (IKZF1; [2]) | IKZF2 substrate protein remaining % (IKZF2; [2]) | IKZF3 substrate protein remaining % (IKZF3; [2]) | Wee1 substrate protein remaining % (WEE1; [2]) | CK1α substrate protein remaining % (CK1α; [2]) | GSPT1 substrate protein remaining % (GSPT1; [3]) | IKZF 1 substrate protein remaining % (IKZF1; [3]) | IKZF2 substrate protein remaining % (IKZF2; [3]) | IKZF3 substrate protein remaining % (IKZF3; [3]) | Wee1 substrate protein remaining % (WEE1; [3]) | CK1α substrate protein remaining % (CK1α; [3])
O=C1CCC(N2Cc3cc(CN4CC5CCC4CN5C(c4ccccc4)c4ccccc4)ccc3C2=S)C(=O)N1 (stereo not drawn) [GT-07847, 3-(5-((5-benzhydryl-2,5-diazabicyclo[2.2.2]octan-2-yl)methyl)-1-thioxoisoindolin-2-yl)piperidine-2,6-dione] | A (0% ≤ substrate protein remaining % ≤ 80%) | 53 to 60% | 80 to 100% | B (80%< substrate protein remaining %≤ 100%) | A (0% ≤ substrate protein remaining % ≤ 80%) | A (0% ≤ substrate protein remaining % ≤ 80%) | A (0% ≤ substrate protein remaining % ≤ 80%) | B (80%< substrate protein remaining %≤ 100%) | – | – | – | – | – | –
O=C1CCC(N2Cc3cc(CN4CC=C(c5ncnc6scc(-c7ccccc7)c56)CC4)ccc3C2=S)C(=O)N1 (stereo not drawn) [GT-09320, 3-(5-((4-(5-phenylthieno[2,3-d]pyrimidin-4-yl)-3,6-dihydropyridin-1(2H)-yl)methyl)-1-thioxoisoindolin-2-yl)piperidine-2,6-dione] | – | 60 to 80% | 80 to 100% | – | – | – | – | – | A (0% ≤ substrate protein remaining % ≤ 80%) | B (80%< substrate protein remaining %≤ 100%) | B (80%< substrate protein remaining %≤ 100%) | B (80%< substrate protein remaining %≤ 100%) | A (0% ≤ substrate protein remaining % ≤ 80%) | B (80%< substrate protein remaining %≤ 100%)
Cc1nc(C2CCN(Cc3ccc4c(c3)CN(C3CCC(=O)NC3=O)C4=S)CC2)c2c3c(sc2n1)CCC3 (stereo not drawn) [GT-09312, 3-(5-((4-(2-methyl-6,7-dihydro-5H-cyclopenta[4,5]thieno[2,3-d]pyrimidin-4-yl)piperidin-1-yl)methyl)-1-thioxoisoindolin-2-yl)piperidine-2,6-dione] | – | 60 to 80% | 80 to 100% | – | – | – | – | – | A (0% ≤ substrate protein remaining % ≤ 80%) | B (80%< substrate protein remaining %≤ 100%) | B (80%< substrate protein remaining %≤ 100%) | A (0% ≤ substrate protein remaining % ≤ 80%) | B (80%< substrate protein remaining %≤ 100%) | B (80%< substrate protein remaining %≤ 100%)
Cc1nc(C2=CCN(Cc3ccc4c(c3)CN(C3CCC(=O)NC3=O)C4=S)CC2)c2c(-c3ccccc3)csc2n1 (stereo not drawn) [GT-09321, 3-(5-((4-(2-methyl-5-phenylthieno[2,3-d]pyrimidin-4-yl)-3,6-dihydropyridin-1(2H)-yl)methyl)-1-thioxoisoindolin-2-yl)piperidine-2,6-dione] | – | 53 to 60% | 80 to 100% | – | – | – | – | – | A (0% ≤ substrate protein remaining % ≤ 80%) | B (80%< substrate protein remaining %≤ 100%) | B (80%< substrate protein remaining %≤ 100%) | B (80%< substrate protein remaining %≤ 100%) | A (0% ≤ substrate protein remaining % ≤ 80%) | B (80%< substrate protein remaining %≤ 100%)
O=C1CCC(N2Cc3c(CN4CCN(c5ncccn5)CC4)cccc3C2=S)C(=O)N1 (stereo not drawn) [GT-08812, 3-(4-((4-(pyrimidin-2-yl)piperazin-1-yl)methyl)-1-thioxoisoindolin-2-yl)piperidine-2,6-dione] | B (80%< substrate protein remaining %≤ 100%) | 60 to 80% | 80 to 100% | B (80%< substrate protein remaining %≤ 100%) | B (80%< substrate protein remaining %≤ 100%) | B (80%< substrate protein remaining %≤ 100%) | A (0% ≤ substrate protein remaining % ≤ 80%) | B (80%< substrate protein remaining %≤ 100%) | – | – | – | – | – | –
O=C1CCC(N2Cc3cc(CN4CCN(c5ccc(Cl)cc5Cl)CC4)ccc3C2=S)C(=O)N1 (stereo not drawn) [GT-08604, 3-(5-((4-(2,4-dichlorophenyl)piperazin-1-yl)methyl)-1-thioxoisoindolin-2-yl)piperidine-2,6-dione] | A (0% ≤ substrate protein remaining % ≤ 80%) | 30 to 40% | 60 to 80% | B (80%< substrate protein remaining %≤ 100%) | B (80%< substrate protein remaining %≤ 100%) | B (80%< substrate protein remaining %≤ 100%) | B (80%< substrate protein remaining %≤ 100%) | B (80%< substrate protein remaining %≤ 100%) | – | – | – | – | – | –
